Results from patent US8722663B2, “Di-substituted pyridine derivatives as anticancers” (Otsuka Pharmaceutical Co., Ltd., priority 2010, dated 2014).
Structures can show the parent of a compound that is named as a salt.

Assays:
[1] = tested on: human hepatic cancer cell line (HuH-7); assay: Growth inhibition of HuH-7 cells, sulforhodamine B method; assay type: cell-based; details: Homo sapiens, 120 h, 5 days with test compound
Method: (§1) Growth inhibition of a human breast cancer cell line (MDA-MB-468) was determined by the sulforhodamine B method based on the method of Skehan P. et al. (J Natl Cancer Inst. 1990 Jul. 4; 82(13): 1107-12). In the study, MDA-MB-468 cells were seeded on DMEM medium containing 10% fetal bovine serum in a 96-well microplate. After 24-h incubation at 37° C. in the presence of 5% carbon dioxide, the test compound was added and the cells were incubated for another 5 days. After incubation, a trichloroacetic acid solution was added to yield the final concentration of 10% and the cells were left to stand at 4° C. for 1 hour to fix. Then, the cells were washed with water to remove the medium and trichloroacetic acid and dried in the air. The dried cells were stored at 4° C. until they were stained with sulforhodamine B. To each well, 1% acetic acid solution containing 0.4% sulforhodamine B was added and left to stand for 20 to 30 minutes at room temperature. After discarding the supernatant, each well was washed with 1% acetic acid solution, and 10 mM Tris([…]) solution was added while stirring to elute the dye taken into the cells. Then, the optical density was determined at the measurement wavelength of 492 nm and the reference wavelength of 690 nm, and the difference was calculated. The cell growth activity in each well was defined as the value determined by subtracting the OD in the control well not containing cells (the difference in absorbance between 492 nm and 690 nm) from that in the test well.
(§2) The 50% inhibitory concentration (IC50 (nM)) of the test compound was determined by comparing the cell growth activity in the well containing the test compound with that of the control not containing the test compound.
The growth inhibition on a human hepatic cancer cell line (HuH-7) was also determined by the above method.

[2] = tested on: bicalutamide resistant human prostate cancer cell line established from LNCaP.FGC (LNCaP-Bic); assay: Growth inhibition of LNCaP-Bic cells, WST-8 assay; assay type: cell-based; details: 120 h, 5 days with test compound
Method: (§3) The growth inhibition on a bicalutamide resistant human prostate cancer cell line established from LNCaP.FGC (LNCaP-Bic) (Hobisch A, et al. Prostate. 2006; 66(4):413-20.) was determined by a WST-8 assay according to the method of Singh A K, et al. (Cancer Lett. 1996 Oct. 1; 107(1): 109-15.). In this method, LNCaP-Bic cells were seeded in RPMI 1640 medium containing 10% fetal bovine serum in a 96-well microplate and incubated at 37° C. for 24 hours in the presence of 5% carbon dioxide. Then, the test compound was added and the cells were incubated for another 5 days. After incubation, a 15-μL volume of WST-8 (2-(2-methoxy-4-nitrophenyl)-3-(4-nitrophenyl)-5-(2,4-[…])-2H-tetrazolium, monosodium salt) was added. After the incubation for the time, the color reaction was stopped by adding 15 μL of 1% SDS (sodium dodecyl sulfate) solution and the optical density was determined at the measurement wavelength of 450 nm and the reference wavelength of 630 nm, and the difference was calculated. The cell growth activity in each well was defined as the value determined by subtracting the OD in the control well not containing cells (the difference in absorbance between 450 nm and 630 nm) from that in the test well.
as §2

[3] = tested on: human prostate (carcinoma) cell line (DU 145); assay: Growth inhibition of DU 145 cells, WST-8 assay; assay type: cell-based; details: 120 h, 5 days with test compound
Method: as §3, §2
The growth inhibition on a human prostate (carcinoma) cell line (DU 145) (van Bokhoven A, et al. Prostate. 2003; 57(3):205-25.) was also determined by the above method.

[4] = tested on: human breast cancer cell line (MDA-MB-468); assay: Growth inhibition of MDA-MB-468 cells, sulforhodamine B method; assay type: cell-based; details: 120 h, 5 days with test compound
Method: as §1, §2

[5] = tested on: human prostate (adenocarcinoma) cell line (VcaP); assay: Growth inhibition of VcaP cells, WST-8 assay; assay type: cell-based; details: 120 h, 5 days with test compound
Method: as §3, §2
The growth inhibition on a human prostate (adenocarcinoma) cell line (VcaP) (Korenchuk S, et al. In Vivo. 2001; 15(2):163-8.) was also determined by the above method.

[6] = tested on: human prostate (adenocarcinoma) cell line (PC-3); assay: Growth inhibition of PC-3 cells, WST-8 assay; assay type: cell-based; details: 120 h, 5 days with test compound
Method: as §3, §2
The growth inhibition on a human prostate (adenocarcinoma) cell line (PC-3) (van Bokhoven A, et al. Prostate. 2003; 57(3):205-25.) was also determined by the above method.

[7] = tested on: human prostate (carcinoma) cell line (LNCaP.FGC); assay: Growth inhibition of LNCaP.FGC cells, WST-8 assay; assay type: cell-based; details: 120 h, 5 days with test compound
Method: as §3, §2
The growth inhibition on a human prostate (carcinoma) cell line (LNCaP.FGC) (van Bokhoven A, et al. Prostate. 2003; 57(3):205-25.) was also determined by the above method.

melting point | IC50 [1] | IC50 [2] | IC50 [3] | IC50 [4] | IC50 [5] | IC50 [6] | IC50 [7] | Structure (SMILES)
 | < 10 nM | < 10 nM | < 10 nM | < 10 nM | < 10 nM | < 10 nM | < 10 nM | Cc1cc(/C=C/C(=O)N2CCN(Cc3ccc(CCOc4ccc(C(C)C)cc4)cc3)CC2)cc(Cl)c1Oc1ccc(OCc2ccccc2Cl)cn1 [Example 608, (E)-3-[3-Chloro-4-({5-[(2-chlorobenzyl)oxy]pyridin-2-yl}oxy)-5-methylphenyl]-1-[4-(4-{2-[4-(propan-2-yl)phenoxy]ethyl}benzyl)piperazin-1-yl]prop-2-en-1-one hydrochloride]
188 to 189.5 °C | < 10 nM | < 10 nM | < 10 nM | < 10 nM | < 10 nM | < 10 nM | < 10 nM | Cc1cc(/C=C/C(=O)N2CCN(Cc3ccc(CCOc4ccc(C(C)C)cc4)cc3)CC2)cc(Cl)c1Oc1ccc(OCc2ccccc2F)cn1.Cl [Example 454, (E)-3-[3-Chloro-4-({5-[(2-fluorobenzyl)oxy]pyridin-2-yl}oxy)-5-methylphenyl]-1-[4-(4-{2-[4-(propan-2-yl)phenoxy]ethyl}benzyl)piperazin-1-yl]prop-2-en-1-one hydrochloride]
211.9 to 214 °C | < 10 nM |  |  |  |  |  |  | Cc1cc(/C=C/C(=O)N2CCN(Cc3ccc(CCOc4ccc(F)cc4)cc3)CC2)cc(Cl)c1Oc1ccc(OCc2ccccc2Cl)cn1.Cl [Example 449, (E)-3-[3-Chloro-4-({5-[(2-chlorobenzyl)oxy]pyridin-2-yl}oxy)-5-methylphenyl]-1-(4-{4-[2-(4-fluorophenoxy)ethyl]benzyl}piperazin-1-yl)prop-2-en-1-one hydrochloride]
214.8 to 215.3 °C | < 10 nM |  |  |  |  |  |  | Cc1cc(/C=C/C(=O)N2CCN(Cc3ccc(CCOc4ccc(C(C)C)cc4)cc3)CC2)cc(Cl)c1Oc1ccc(OCc2ccc(Cl)nc2)cn1.Cl [Example 443, (E)-3-[3-Chloro-4-({5-[(6-chloropyridin-3-yl)methoxy]pyridin-2-yl}oxy)-5-methylphenyl]-1-[4-(4-{2-[4-(propan-2-yl)phenoxy]ethyl}benzyl)piperazin-1-yl]prop-2-en-1-one hydrochloride]
166.4 to 167.7 °C | < 10 nM |  |  |  |  |  |  | Cc1cc(/C=C/C(=O)N2CCN(Cc3ccc(CCOc4ccc(C(C)C)cc4)cc3)CC2)cc(Cl)c1Oc1ccc(OCc2cccnc2)cn1.Cl [Example 445, (E)-3-(3-Chloro-5-methyl-4-{[5-(pyridin-3-ylmethoxy)pyridin-2-yl]oxy}phenyl)-1-[4-(4-{2-[4-(propan-2-yl)phenoxy]ethyl}benzyl)piperazin-1-yl]prop-2-en-1-one hydrochloride]
210.3 to 210.6 °C | < 10 nM | < 10 nM | < 10 nM | < 10 nM | < 10 nM | < 10 nM | < 10 nM | Cc1ccccc1COc1ccc(Oc2c(C)cc(/C=C/C(=O)N3CCN(Cc4ccc(CCOc5ccc(F)cc5)cc4)CC3)cc2Cl)nc1.Cl [Example 448, (E)-3-[3-Chloro-5-methyl-4-({5-[(2-methylbenzyl)oxy]pyridin-2-yl}oxy)phenyl]-1-(4-{4-[2-(4-fluorophenoxy)ethyl]benzyl}piperazin-1-yl)prop-2-en-1-one hydrochloride]

Further lines, the compound ahead of its results:

Structure (SMILES) | melting point | IC50 [1] | IC50 [2] | IC50 [3] | IC50 [4] | IC50 [5] | IC50 [6] | IC50 [7]
Cc1ccc(OCCc2ccc(CN3CCN(C(=O)/C=C/c4cc(C)c(Oc5ccc(OCc6cncs6)cn5)c(C)c4)CC3)cc2)cc1.Cl [Example 596, (E)-3-(3,5-Dimethyl-4-{[5-(1,3-thiazol-5-ylmethoxy)pyridin-2-yl]oxy}phenyl)-1-(4-{4-[2-(4-methylphenoxy)ethyl]benzyl}piperazin-1-yl)prop-2-en-1-one hydrochloride] | 207 to 207.2 °C | < 10 nM |  |  |  |  |  | 
Cc1cc(/C=C/C(=O)N2CCN(Cc3ccc(CCOc4ccc(C(C)C)cc4)cc3)CC2)cc(C)c1Oc1ccc(OCc2cscn2)cn1 [Example 600, (E)-3-(3,5-Dimethyl-4-{[5-(1,3-thiazol-4-ylmethoxy)pyridin-2-yl]oxy}phenyl)-1-[4-(4-{2-[4-(propan-2-yl)phenoxy]ethyl}benzyl)piperazin-1-yl]prop-2-en-1-one hydrochloride] |  | < 10 nM | < 10 nM | < 10 nM |  | < 10 nM | < 10 nM | < 10 nM
Cc1cc(/C=C/C(=O)N2CCN(Cc3ccc(Oc4ccc(Cl)cc4)cc3)CC2)cc(C)c1Oc1ccc(OCc2ccc(C#N)cc2)cn1.Cl [Example 692, 4-{[(6-{4-[(E)-3-{4-[4-(4-Chlorophenoxy)benzyl]piperazin-1-yl}-3-oxoprop-1-en-1-yl]-2,6-dimethylphenoxy}pyridin-3-yl)oxy]methyl}benzonitrile hydrochloride] | 231.9 to 233.7 °C | < 10 nM |  |  |  |  |  | 
COc1cccc(OCCc2ccc(CN3CCN(C(=O)/C=C/c4ccc(Oc5ccc(OCc6ccc(F)cc6)cn5)c(Cl)c4)CC3)cc2)c1.Cl [Example 757, (E)-3-[3-chloro-4-({5-[(4-fluorobenzyl)oxy]pyridin-2-yl}oxy)phenyl]-1-(4-{4-[2-(3-methoxyphenoxy)ethyl]benzyl}piperazin-1-yl)prop-2-en-1-one hydrochloride] | 201.5 to 202 °C | < 10 nM |  |  |  |  |  | 
COc1cc(/C=C/C(=O)N2CCN(Cc3ccc(CCOc4ccc(C)cc4)cc3)CC2)ccc1Oc1ccc(OCc2ccccc2Cl)cn1.Cl [Example 482, (E)-3-[4-({5-[(2-Chlorobenzyl)oxy]pyridin-2-yl}oxy)-3-methoxyphenyl]-1-(4-{4-[2-(4-methylphenoxy)ethyl]benzyl}piperazin-1-yl)prop-2-en-1-one hydrochloride] | 203.4 to 205.7 °C | < 10 nM |  |  |  |  |  | 
Cc1cc(/C=C/C(=O)N2CCN(Cc3ccc(CCOc4ccc(Cl)cc4)cc3)CC2)cc(C)c1Oc1ccc(OCc2ccc(C#N)cc2)cn1.Cl [Example 558, 4-{[(6-{4-[(E)-3-(4-{4-[2-(4-Chlorophenoxy)ethyl]benzyl}piperazin-1-yl)-3-oxoprop-1-en-1-yl]-2,6-dimethylphenoxy}pyridin-3-yl)oxy]methyl}benzonitrile hydrochloride] | 219.7 to 220.7 °C | < 10 nM | < 10 nM | < 10 nM |  | < 10 nM | < 10 nM | < 10 nM
C/C(C(=O)N1CCN(Cc2ccc(CCOc3ccc(F)cc3)cc2)CC1)=C(/C)c1cc(C)c(Oc2ccc(OCc3ccc(C)cc3)cn2)c(Cl)c1.O=C(O)C(=O)O [Example 751, (E)-3-[3-Chloro-5-methyl-4-({5-[(4-methylbenzyl)oxy]pyridin-2-yl}oxy)phenyl]-1-(4-{4-[2-(4-fluorophenoxy)ethyl]benzyl}piperazin-1-yl)-2-methylbut-2-en-1-one ethanedioate] | 236.1 to 236.6 °C | < 10 nM |  |  |  |  |  | 
COc1ccc(Oc2ccc3cc(CN4CCN(C(=O)/C=C/c5cc(C)c(Oc6ccc(OCc7ccccc7Cl)cn6)c(Cl)c5)CC4)ccc3n2)cc1.Cl [Example 675, (E)-3-[3-Chloro-4-({5-[(2-chlorobenzyl)oxy]pyridin-2-yl}oxy)-5-methylphenyl]-1-(4-{[2-(4-methoxyphenoxy)quinolin-6-yl]methyl}piperazin-1-yl)prop-2-en-1-one hydrochloride] | 228 to 228.9 °C | < 10 nM |  |  |  |  |  | 
